# How the values were obtained:
# [1] = test system: male Wistar rats; test: SCORE EEG/EMG sleep-wake monitoring: sleep continuity, number of arousals, depth of sleep; format: in vivo, rat; conditions: 30 mg/kg PO
# Description: Example 30. Experimental Details and Methods for Determining Sleep Continuity, Number of Arousals, and Depth of Sleep
# Treatment detail plots (see, e.g., FIGS. 1-10) depict pre- and post-treatment time series plot ±30 hours before and after treatment at CT-18 (6-hours after lights-off) or pre- and post-treatment time series plots 29 hr before and 31 hr after treatments at CT-5 (5-hours after lights-on). Treatment occurred at the beginning of the hour marked by a triangle on the abscissa of the plot. Variables were computed in hourly bins.
# All data were plotted as group mean±SEM (see, e.g., FIGS. 1-10). The gray shaded area encompasses the vehicle treatment mean±SEM. Along the x-axis, time of treatment is marked by a triangle unless noted otherwise. Along the x-axis, light/dark bars indicate lights on/off.
# Adult, male Wistar rats (approximately 270 g at time of surgery, Charles River Laboratories) were administered dexmedetomidine 25 μg/kg and anesthetized (2% isoflourane in 95/5 oxygen, to effect) and surgically prepared with a cranial implant that permitted chronic electro-encephalogram (EEG) and electromyogram (EMG) recording. Body temperature and locomotor activity were monitored via a miniature transmitter (Minimitter Series PDT4000 E-Mitter, Bend, Oreg.) surgically placed in the abdomen during the same anesthetic event when the cranial portion was implanted. The cranial implant consisted of miniature stainless steel screws (2 frontal [+3.9 AP from bregma, 2.0 ML], 2 occipital [−6.4 AP, 5.5 ML], and 1 ground placed sagittaly and posterior to lambda) for EEG recording. Two Teflon-coated multi-strand stainless steel wires were positioned under the nuchal trapezoid muscles for EMG recording. All leads were soldered to a miniature connector (Omnetics, Minneapolis, Minn.) and gas sterilized with ethylene oxide prior to surgery. The implant assembly was affixed to the skull by the combination of the EEG recording screws, cyanoacrylate applied between the hermetically sealed implant connector and skull, and a UV-curing dental acrylic. An analgesic (meloxicam 1 mg/kg IP) was administered 1 day prior to surgery and daily for 2 days post-surgery. Neosporin with lidocaine was applied topically to the peri-implant margin. At least three weeks were allowed for surgical recovery prior to any data collection.
# Rats were housed individually within specially modified Innovive® cages equipped with a custom-built ultra-low-torque slip-ring commutator and a customized Innovive® polycarbonate cage-top. These cages were located on shelves of a modified stainless steel animal rack that was pre-wired for physiological and behavioral data collection. Food and water were available ad libitum and the ambient temperature was 22±1° C. A 24-hr light-dark cycle (LD 12:12) was maintained throughout the study using LED lighting strips. Light intensity averaged 35 lux at mid-level inside the cage. Relative humidity averaged 50% approximately. Animals were undisturbed for two days before and after each treatment.
# Sleep and wakefulness were determined using SCORE™—a Linux and Windows-10 real-time computer-based sleep-wake and physiological monitoring system. Validation of the SCORE™ sleep stage identification algorithm in rodents and the system's utility in pre-clinical drug discovery and evaluation have been previously described (Edgar et al. Psychopharmacology 1991, 105, 374; Gilmour et al., Neuropharmacology 2012, 64, 224; McCarthy et al., 2016, Neuropharmacology 108, 415; Olive et al., J. Pharmacology &Experimental Therapeutics 1998 285, 1073; Phillips et al, Neuropharmacology 2012, 62, 1359; Seidel et al. J Pharmacology &Experimental Therapeutics 1995, 275, 263; Van Gelder et al. Sleep 1991, 14, 48). […]
# [2] = molecular target: D2 (Homo sapiens (Human), UniProt P14416); test: D2 binding assay ([3H] 7-OH-DPAT, HEK293 D2L membranes); conditions: numeric values
# Description: D2 Binding Assay Protocol
# The testing compounds were diluted with DMSO, starting at 2 mM, with 8-points and 5-fold serial dilutions. droperidol was diluted with DMSO, starting at 0.2 mM, with 8-points and 4-fold serial dilutions.
# 1 μL of a compound of the present disclosure and the reference compound (Table O) was transferred to an assay plate. 1 μL of droperidol was transferred to an assay plate according to the plate map for nonspecific binding (Low control: LC). 1 μL of DMSO was transferred to an assay plate according to the plate map for total binding (High control: HC). Following a plate map, 100 μL of the membrane stock solutions and radio ligand were added into the plate. The plates were sealed and shaken with 300 rpm.
# (§1) Unifilter-96 GF/C filter plates were soaked with 50 μL of 0.3% PEI per well for about 0.5 hours at room temperature. When the binding assays were complete, the reaction mixture was filtered through the GF/B filter plates using Perkin Elmer Filtermate Harvester, and each plate was washed 4 times with cold wash buffer. The filter plates were dried for 1 hour at 50° C. After drying, the bottom of the filter plate wells were sealed using Perkin Elmer Unifilter-96 backing seal tape. 50 μL of Perkin Elmer Microscint 20 cocktail was added. The top of the filter plates were sealed with Perkin Elmer TopSeal-A sealing film.
# ^3H trapped on filters were counted using Perkin Elmer MicroBeta2 Reader. Inhibition constants were calculated using the following equation: […]
# The data was analyzed using Prism 5. The model used was “log(inhibitor) vs. response—Variable slope” to fit the data and calculate IC50. The IC50 was then converted to Ki using the following equation: Ki=IC50/(1+L/Kd), wherein L is the radioligand concentration in the reaction system; Kd is the affinity of radioligand to the receptor. As shown in Table Q Compound No. 7 has a lower affinity for D2 when compared to Compounds A-2, A-3, A-4, and A-5.
# [3] = molecular target: H1 (Homo sapiens (Human), UniProt P35367); test: H1 binding assay ([3H]pyrilamine, HEK293 stable cell line membranes); conditions: Table E, class symbols
# Description: Example 25. H1 and 5-HT2A Binding Assay Protocol
# The testing compounds were diluted with DMSO, starting at 2 mM, with 8-points and 5-fold serial dilutions. Ketanserin and Pyrilamine were diluted with DMSO, starting at 0.2 mM, with 8-points and 5-fold serial dilution.
# 1 μl of a compounds of the present disclosure and either reference compound (Table C) were transferred to assay plates. 1 μl of 0.2 mM Ketanserin or Pyrilamine was transferred to an assay plate according to the plate map for nonspecific binding (Low control: LC). 1 μl of DMSO was transferred to an assay plate according to plate map for total binding (High control: HC).
# 100 μlof membrane stocks were dispensed into the plates, following the plate map. 100 of radio ligand was added. The plates were sealed and shaken at 300 rpm at room temperature for 1 hour. The Unifilter-96 GF/C filter plates were soaked with 50 of 0.3% PEI per well for at least 0.5 hour at room temperature.
# as §1, with “When” for “Unifilter-96 GF/C filter plates were soaked with 50 μL of 0.3% PEI per well for about 0.5 hours at room temperature. When”, “GF/C” for “the GF/B filter”, “and then” for “and”, “50 degrees.” for “50° C.”, “μl” for “μL”
# ^3H trapped on filters were counted using Perkin Elmer MicroBeta2 Reader. Inhibition constants were calculated using the following equation:
# [formula] The data was analyzed using Prism 5. The model used was “log(inhibitor) vs. response—Variable slope” to fit the data and calculate IC50. The IC50 was then converted to Ki using following equation: Ki=IC50/(1+L/Kd). L is the radioligand concentration in the reaction system; Kd is the affinity of radioligand to the receptor.
# Sequence of D2 (P14416 whole entry): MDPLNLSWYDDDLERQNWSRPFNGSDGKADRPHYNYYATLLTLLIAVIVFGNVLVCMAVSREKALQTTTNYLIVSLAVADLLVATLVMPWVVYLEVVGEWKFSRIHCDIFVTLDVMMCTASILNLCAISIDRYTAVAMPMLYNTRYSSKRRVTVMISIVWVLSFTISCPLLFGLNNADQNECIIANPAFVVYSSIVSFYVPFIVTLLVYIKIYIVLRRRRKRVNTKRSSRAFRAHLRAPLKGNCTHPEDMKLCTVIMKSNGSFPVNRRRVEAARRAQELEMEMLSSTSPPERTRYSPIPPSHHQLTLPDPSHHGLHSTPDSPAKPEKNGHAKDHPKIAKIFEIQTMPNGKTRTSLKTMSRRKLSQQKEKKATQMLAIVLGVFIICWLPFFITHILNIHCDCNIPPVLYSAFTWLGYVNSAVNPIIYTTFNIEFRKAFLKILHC
# Sequence of H1 (P35367 whole entry): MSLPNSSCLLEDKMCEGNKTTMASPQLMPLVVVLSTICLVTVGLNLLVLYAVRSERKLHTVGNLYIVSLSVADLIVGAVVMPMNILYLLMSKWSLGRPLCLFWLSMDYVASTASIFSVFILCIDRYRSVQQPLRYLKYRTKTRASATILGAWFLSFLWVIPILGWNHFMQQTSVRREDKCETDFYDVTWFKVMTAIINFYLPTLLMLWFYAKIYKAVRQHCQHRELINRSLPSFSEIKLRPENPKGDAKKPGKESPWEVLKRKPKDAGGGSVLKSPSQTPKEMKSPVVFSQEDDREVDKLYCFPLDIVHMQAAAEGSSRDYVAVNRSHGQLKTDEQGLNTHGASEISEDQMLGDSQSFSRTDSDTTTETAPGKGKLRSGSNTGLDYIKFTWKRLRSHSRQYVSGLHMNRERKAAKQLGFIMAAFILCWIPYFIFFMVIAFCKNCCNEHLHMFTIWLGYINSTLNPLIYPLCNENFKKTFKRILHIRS
smiles,measurement,setting,value
"Cc1ccc2c(c1)Oc1cc(C)ccc1C(N1CCN(CC(C)(C)C(=O)O)CC1)=N2 [Compound No. 7, 3-(4-(3,7-dimethyldibenzo[b,f][1,4]oxazepin-11-yl)piperazin-1-yl)-2,2-dimethylpropanoic acid]",reductions in the number of transitions from sleep to wake per hour relative to controls,"[1]; CT-5, male Wistar rats",40-50%
same,increase in sleep bout-length per hour relative to vehicle control,"[1]; CT-18, male Wistar rats",3-4 fold
same,normalized EEG delta power (slow wave activity) during nonREM sleep,"[1]; CT-18, male Wistar rats",increases in EEG slow wave activity in nonREM sleep
same,Ki,[2],> 50 µM
same,Ki,[3],> 50 nM

# Reference: patent US11046651B2, “Piperazine substituted azapine derivatives and uses thereof” (Alairion, Inc., priority 2019, dated 2021)
